Data published in US10316039B2, “P2X3 and/or P2X2/3 compounds and methods” (Asana Biosciences, LLC, priority 2013, dated 2019).

Assays:
[1] = tested on: formalin-induced hind limb flinching; test: Formalin induced pain (Automated Nociception Analyzer test); type: in vivo; conditions: rat, 100 mg/kg oral gavage, 30 min before footpad formalin
Method: FIG. 3 illustrates the antinociceptive effects of the compound of example 22 in a rat model of ongoing spontaneous pain. The compound of example 22 was administered by oral gavage at a dose of 100 mg/kg followed 30 min later by a footpad injection of a dilute formalin solution. Formalin elicits a typical biphasic nociceptive response that manifests as spontaneous hind limb flinches which are counted and binned over 5 min epochs. […] Male Sprague Dawley rats of young adult age group and body weight range of 200-250 g were included in the study. Animals were housed under a 12 h light/dark cycle with food and water ad libitum. Animals were acclimatized in the observation chambers of Automated Nociception Analyzer (ANA) for 45-60 min, twice daily for two days prior to the study day. On the day of the study, metal bands were glued to the plantar surface of the right hind paw of each animal enrolled in the study set and kept in plastic observation chambers for 10-15 min. […] […] count data for each animal was recorded from 1 to 60 min post formalin injection, using ANA motion analysis software. The study was analyzed in 2 phases, the early phase extended from 0-10 min and second phase extended from 11-60 min post formalin injection. […]

[2] = tested on: acetic acid-induced writhing (visceral pain); test: Acetic acid induced writhing test; type: in vivo; conditions: mouse, 20, 40 and 60 mg/kg oral gavage, 30 min before i.p. acetic acid, counted 15 min
Method: FIG. 4 illustrates the antinociceptive effects of the compound of example 22 in a mouse model of visceral pain. The compound of example 22 was administered by oral gavage at 3 dose levels (20, 40 and 60 mg/kg) 30 min prior to an intraperitoneal injection of a dilute acetic acid solution. When injected into the abdominal cavity, acetic acid induces a distinctive stretching response in the abdomen and at least one hind limb that is assumed to reflect a response to visceral pain. […] Statistical significance is indicated with respect to the vehicle control group and was performed using a one-way ANOVA followed by Dunnett's multiple comparison test. Swiss albino mice of 30-40 g were included in the study. The mice were given an intraperitoneal injection of 0.7% v/v acetic acid solution at an injection volume of 10 mL/kg, 30 min after oral administration of vehicle or test article control. Test articles were administered, typically, at doses between 20 and 60 mg/kg. The mice were placed individually into glass chambers. The number of writhes produced in these animals was counted for 15 min following acetic acid administration. For scoring purposes writhing was indicated by stretching of the abdomen with simultaneous stretching of at least one hind limb. See, e.g., FIG. 4. Statistical analysis was done with One way ANOVA followed by Dunnett's multiple comparison tests. […]

CCc1cnnn1-c1cc(C(=O)NCc2ccc(C)nc2)cn2c(-c3ccc(C)s3)cnc12 [Example 22]
second phase flinching response to formalin [1]: attenuated the second phase flinching response to formalin | pain responses (writhes) after acetic acid [2]: clear dose-related reduction in the pain responses
